{"source": "PubChem BioAssay AID1845194", "about": "(Molecular Pharmacology Branch, DTP, NCI, 2023);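 further: spheroids exposed to compound for 7 days before viability readout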;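 on viability, T/C: luminescent signal taken as surrogate of viable cell content; 100% = DMSO vehicle control viability and lower means growth inhibition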", "system": "287954-098-R-J1 tumor spheroid viability", "test": "Anticancer human tumor 287954-098-R-J1 patient-derived Ewing sarcoma cell line growth inhibition", "conditions": "spheroids with HUVEC and MSC; for viability, T/C: stronger effect = lower value", "source_text": "Multicellular complex tumor spheroid response to DNA repair inhibitors in combination with DNA-damaging drugs\nThis study explores the anticancer activities of DNA-damaging drugs and inhibitors of DNA damage repair, both as single agents and in combinations. Complex tumor spheroids comprised of malignant cells, endothelial cells and mesenchymal stem cells served as an in vitro model for human solid tumors. This model system incorporates physiologically relevant features and patient-derived or established malignant cell lines with clinically relevant genetic alterations from many tumor types. Twenty-six patient-derived or established malignant cell lines were evaluated representing sarcoma, melanoma, small cell lung cancer (SCLC), non-small cell lung cancer (NSCLC), as well as bladder, ovarian and pancreatic cancers. The concentration ranges selected for each drug and investigational agent were based upon clinically achievable concentrations if the clinical Cmax of the agent was known.\nCompounds. The drugs and compounds olaparib (NSC753686), talazoparib (NSC767125), berzosertib (NSC777718), elimusertib (NSC800525), nedisertib (NSC802822), VX-984 (NSC792969), AZD-1390 (NSC803789), temozolomide (NSC362856), topotecan (NSC609699), trabectedin (NSC813783), staurosporine (NSC755774), and gemcitabine (NSC613327) were obtained from the National Cancer Institute (NCI) Developmental Therapeutics Program Chemical Repository. The FDA-approved anticancer drug set is available from the Developmental Therapeutics Program at https://dtp.cancer.gov/organization/dscb/obtaining/available_plates.htm. […] The stock solutions were prepared in dimethyl sulfoxide (DMSO, Sigma-Aldrich, St. Louis, MO, cat. D2650) at 400-fold the tested concentration and stored at -70 degrees C. Prior to their use, the stock solutions were diluted in fresh medium and the final DMSO concentration in the assay was 0.25% (v/v). All drugs and investigational agents were tested over a range starting from a high concentration at or near the clinical Cmax and decreasing in half-log increments. If the clinical Cmax for an agent had not been determined, the highest concentration tested was 10 microM.\nCell Lines. The patient-derived cancer cell (PDC) lines: 156681-154-R-J1-PDC, 283228-195-R-J1-PDC, 287954-098-R-J1-PDC, 292921-168-R-J2-PDC, 349418-098-R-PDC, 425362-245-T-J1-PDC, 556581-035-R-J1-PDC, and BL0293-F563-PDC were received from the NCI Patient-Derived Models Repository (PDMR, https://pdmr.cancer.gov). The established cell lines HS-SY-2 (RRID:CVCL_8719), MPNST, and SYO-1 (RRID:CVCL_7146) were obtained from the Sloan Kettering Institute. The alveolar soft parts sarcoma cell line ASPS-1 (RRID:CVCL_S738) was established at the NCI and grown from internal seed stocks. The following established cell lines were purchased from the American Type Culture Collection (ATCC, Manassas, VA): G-401 (ATCC, cat. CRL-1441, RRID:CVCL_0270), SW982 (ATCC, cat. HTB-93, RRID:CVCL_1734), VA-ES-BJ (ATCC, cat. CRL-2138, RRID:CVCL_1785), NCI-H719 (ATCC, cat. CRL-5837, RRID:CVCL_1582), NCI-H196 (ATCC, cat. CRL-5823, RRID:CVCL_1509), NCI-H841 (ATCC, cat. CRL-5845, RRID:CVCL_1595), NCI-H1618 (ATCC, cat. CRL-5879, RRID:CVCL_1480), NCI-H1876 (ATCC, cat. CRL-5902, RRID:CVCL_1503), DMS 114 (ATCC, cat. CRL-2066; RRID:CVCL_1174), NCI-H211 (ATCC, cat. CRL-5824; RRID:CVCL_1529), and SW 1271 (ATCC, cat. CRL-2177, RRID:CVCL_1716). The small cell lung cancer cell line COR-L88 was purchased from Sigma-Aldrich (cat. 92031917-1VL, RRID:CVCL_1141). The non-small cell lung cancer cell lines NCI-H226 (RRID:CVCL_1544) and NCI-H322M (RRID:CVCL_1557) were established at the NCI and grown from internal seed stocks. Pooled donor human umbilical vein endothelial cells (HUVEC, Lonza, cat. CC-2519) and human mesenchymal stem cells (hMSC, Lonza, cat. PT-2501) were purchased from Lonza (Walkersville, MD).\nCell Culture. All cells were maintained in an incubator at 37 degrees C and 5% CO2 with 95% humidity. […]", "data": [{"smiles": "Cn1ncnc1[C@H]1c2n[nH]c(=O)c3cc(F)cc(c23)N[C@@H]1c1ccc(F)cc1", "note": "+ CC[C@@]1(O)C(=O)OCc2c1cc1n(c2=O)Cc2cc3c(CN(C)C)c(O)ccc3nc2-1", "values": [{"measurement": "IC50", "setting": "curve of first compound, second compound 0.003 µM", "value": 453, "unit": "nM"}, {"measurement": "IC50", "setting": "curve of first compound, second compound 0.00949 µM", "value": 74.8, "unit": "nM"}, {"measurement": "IC50", "setting": "curve of first compound, second compound 0.03 µM", "value": "< 9.49", "unit": "nM"}, {"measurement": "IC50", "setting": "curve of first compound, second compound 0.0949 µM", "value": "< 9.49", "unit": "nM"}, {"measurement": "IC50", "setting": "curve of first compound, second compound 0.3 µM", "value": "< 9.49", "unit": "nM"}, {"measurement": "viability, T/C", "setting": "second compound 0.003 µM, first compound 0.00949 µM", "value": 99.9, "unit": "%"}, {"measurement": "viability, T/C", "setting": "second compound 0.003 µM, first compound 0.03 µM", "value": 97.6, "unit": "%"}, {"measurement": "viability, T/C", "setting": "second compound 0.003 µM, first compound 0.0949 µM", "value": 105, "unit": "%"}, {"measurement": "viability, T/C", "setting": "second compound 0.003 µM, first compound 0.3 µM", "value": 76.4, "unit": "%"}, {"measurement": "viability, T/C", "setting": "second compound 0.003 µM, first compound 0.949 µM", "value": 2.29, "unit": "%"}, {"measurement": "viability, T/C", "setting": "second compound 0.003 µM, first compound 3 µM", "value": 2.4, "unit": "%"}, {"measurement": "viability, T/C", "setting": "second compound 0.00949 µM, first compound 0.00949 µM", "value": 90.6, "unit": "%"}, {"measurement": "viability, T/C", "setting": "second compound 0.00949 µM, first compound 0.03 µM", "value": 74.2, "unit": "%"}, {"measurement": "viability, T/C", "setting": "second compound 0.00949 µM, first compound 0.0949 µM", "value": 45.6, "unit": "%"}, {"measurement": "viability, T/C", "setting": "second compound 0.00949 µM, first compound 0.3 µM", "value": 2.19, "unit": "%"}, {"measurement": "viability, T/C", "setting": "second compound 0.00949 µM, first compound 0.949 µM", "value": 2.05, "unit": "%"}, {"measurement": "viability, T/C", "setting": "second compound 0.00949 µM, first compound 3 µM", "value": 2.02, "unit": "%"}, {"measurement": "viability, T/C", "setting": "second compound 0.03 µM, first compound 0.00949 µM", "value": 2.23, "unit": "%"}, {"measurement": "viability, T/C", "setting": "second compound 0.03 µM, first compound 0.03 µM", "value": 1.81, "unit": "%"}, {"measurement": "viability, T/C", "setting": "second compound 0.03 µM, first compound 0.0949 µM", "value": 2.46, "unit": "%"}, {"measurement": "viability, T/C", "setting": "second compound 0.03 µM, first compound 0.3 µM", "value": 2.34, "unit": "%"}, {"measurement": "viability, T/C", "setting": "second compound 0.03 µM, first compound 0.949 µM", "value": 1.82, "unit": "%"}, {"measurement": "viability, T/C", "setting": "second compound 0.03 µM, first compound 3 µM", "value": 2.07, "unit": "%"}, {"measurement": "viability, T/C", "setting": "second compound 0.0949 µM, first compound 0.00949 µM", "value": 1.93, "unit": "%"}, {"measurement": "viability, T/C", "setting": "second compound 0.0949 µM, first compound 0.03 µM", "value": 1.99, "unit": "%"}, {"measurement": "viability, T/C", "setting": "second compound 0.0949 µM, first compound 0.0949 µM", "value": 2.15, "unit": "%"}, {"measurement": "viability, T/C", "setting": "second compound 0.0949 µM, first compound 0.3 µM", "value": 1.75, "unit": "%"}, {"measurement": "viability, T/C", "setting": "second compound 0.0949 µM, first compound 0.949 µM", "value": 2.09, "unit": "%"}, {"measurement": "viability, T/C", "setting": "second compound 0.0949 µM, first compound 3 µM", "value": 1.72, "unit": "%"}, {"measurement": "viability, T/C", "setting": "second compound 0.3 µM, first compound 0.00949 µM", "value": 1.85, "unit": "%"}, {"measurement": "viability, T/C", "setting": "second compound 0.3 µM, first compound 0.03 µM", "value": 1.99, "unit": "%"}, {"measurement": "viability, T/C", "setting": "second compound 0.3 µM, first compound 0.0949 µM", "value": 1.97, "unit": "%"}, {"measurement": "viability, T/C", "setting": "second compound 0.3 µM, first compound 0.3 µM", "value": 1.59, "unit": "%"}, {"measurement": "viability, T/C", "setting": "second compound 0.3 µM, first compound 0.949 µM", "value": 1.85, "unit": "%"}, {"measurement": "viability, T/C", "setting": "second compound 0.3 µM, first compound 3 µM", "value": 1.48, "unit": "%"}]}, {"smiles": "Cn1nnc2c(C(N)=O)ncn2c1=O", "values": [{"measurement": "viability, T/C", "setting": "compound 1 µM", "value": "101% [middle of 10 runs]"}, {"measurement": "viability, T/C", "setting": "compound 3.16 µM", "value": "101% [middle of 10 runs]"}, {"measurement": "viability, T/C", "setting": "compound 10 µM", "value": "105% [middle of 10 runs]"}, {"measurement": "viability, T/C", "setting": "compound 31.6 µM", "value": "111% [middle of 10 runs]"}, {"measurement": "viability, T/C", "setting": "compound 100 µM", "value": "100% [middle of 10 runs]"}, {"measurement": "IC50", "setting": "compound alone, run of 10/17/2019", "value": "> 100000", "unit": "nM"}]}]}
